The values below come from patent publication EP1337551B1, “SUBSTANCE P ANALOGS FOR THE TREATMENT OF CANCER” (DABUR PHARMA LTD., priority 2000, dated 2002).

Non-standard residues stand in square brackets, D forms with d. Residues, ends and D or L forms follow the SMILES beside them. pHOPA = not defined here

Data set [1] deals with KB (Oral squamous). Kind of data set: In vitro cytotoxic activity of lipo conjugates, MTT assay, 48 hours. It is filed as cell-based. How it is done: (§1) The cytotoxic effect of lipo-conjugates of substance P analogs SEQ ID NO: 6, SEQ ID NO: 7 and SEQ ID NO: 8, was studied by MTT assay which is based on the principle of uptake of MTT [3-[4,5-dimethylthiazol-2-yl]-2,5-diphenyl tetrazolium bromide], a tetrazolium salt by the metabolically active cells where it is metabolized by active mitochondria in to a blue colored formazan product which can be read spectrophotometrically. Briefly, tumor cells - KB (Oral squamous), U87MG (Blioblastoma), HBL100 (Breast), HeP2 (Larngeal), ECV304 (Endothelial), PA-1 (Ovary) and L132 (Lunng) were incubated with the peptide analogs for 48 hours at 37°C in a 96-well culture plate, followed by the addition of 100 µg MTT and further incubation of 1 hour. The formazan crystals formed inside the cells were dissolved with a detergent comprising of 10% Sodium dodecyl sulfate and 0.01 N HCl and optical density read on a multiscan ELISA reader. The optical density was directly proportional to the number of proliferating and metabolically active cells. SEQ ID NO: 6

The test system of data set [2] is PA-1 (Ovary). Described as above. In kind it is cell-based. The protocol:
as §1

The subject of data set [3] is HBL100 (Breast). The data set is described as above. It is filed as cell-based. The protocol: as §1
The subject of data set [4] is ECV304 (Endothelial). Described as above. It is filed as cell-based. The protocol:
as §1

The test system of data set [5] is U87MG (Blioblastoma). The data set is described as above. In kind it is cell-based. How it is done:
as §1

In data set [6] the test system is L132 (Lunng). Described as above. It is filed as cell-based. The protocol: as §1
In data set [7] the test system is HeP2 (Larngeal). Described as above. It is filed as cell-based. How it is done:
as §1

Data set [8] concerns L132 (lung). Kind of data set: In vitro cytotoxic activity, MTT assay, 72 hours. In kind it is cell-based, human. How it is done:
(§2) The cytotoxic activity of synthesized peptides was tested on six human tumor cell lines namely MCF7 (breast), U373 (glioblastoma), PTC, (colon), L132 (lung), Su.86.86 (pancreas), and KB (oral). The tumor cells were collected at exponential growth phase and resuspended in medium (1.5 x 10^6 cells/ml in RPMI 1640 containing 10% FBS). 150µL of medium was added to the wells of a 96-well tissue culture plate (Nunc, Denmark) followed by 30µl of cell suspension. The plate was left in an incubator (37°C, 5% CO2) overnight. 20µl of the peptide (100 pM to 10 µM concentration) was added to marked wells of the 96-well plate. Each concentration was plated in triplicate. 20µl of medium alone was added to control wells while wells without cells served as blanks. A total volume of 200µL was ensured in each well and plate was left in incubator (37°C, 5% CO2). After 72 hours of incubation an MTT assay was performed and percentage cytotoxicity was calculated with respect to control cells.

Data set [9] relates to U373 (glioblastoma). Kind of data set: In vitro cytotoxic activity, MTT assay, 72 hours. It is filed as cell-based, human. The protocol: as §2
For orientation: Formazan colour is commonly taken as a measure of viable cells.

Data set [10] relates to MCF7 (breast). Kind of data set: In vitro cytotoxic activity, MTT assay, 72 hours. In kind it is cell-based, human. How it is done: as §2
Data set [11] has as its system Su.86.86 (pancreas). Kind of data set: In vitro cytotoxic activity, MTT assay, 72 hours. It is filed as cell-based, human. The protocol:
as §2

The test system of data set [12] is PTC, (colon). Kind of data set: In vitro cytotoxic activity, MTT assay, 72 hours. In kind it is cell-based, human. How it is done: as §2
The subject of data set [13] is KB (oral). Kind of data set: In vitro cytotoxic activity, MTT assay, 72 hours. It is filed as cell-based, human. The protocol: as §2
Data set [14] relates to SCLC. The following applies: inhibition of SCLC proliferation; cited from earlier work.
In data set [15] the test system is H-510 and H-69 SCLC cells. The following applies: proliferation of H-510 and H-69 SCLC cells in liquid culture and in semi-solid media; cited from earlier work.

Consider `CCCC(=O)N[C@H](CCCNC(=N)N)C(=O)N1CCC[C@H]1C(=O)N[C@@H](CCCCN)C(=O)N1CCC[C@H]1C(=O)N[C@H](Cc1ccccc1)C(=O)N[C@@H](CCC(N)=O)C(=O)N[C@H](Cc1c[nH]c2ccccc12)C(=O)N[C@@H](Cc1ccccc1)C(=O)N[C@H](Cc1c[nH]c2ccccc12)C(=O)N[C@@H](CC(C)C)C(=O)NC1(C(N)=O)CCCC1` [SEQ ID NO: 7, Butanoyl-D-Arg-Pro-Lys-Pro-D-Phe-Gln-D-Trp-Phe-D-Trp-Leu-Ac5c-NH2] (HELM PEPTIDE1{[CCCC(=O)[*:2]].[dR].P.K.P.[dF].Q.[dW].F.[dW].L.[O=C(C1(N[*:1])CCCC1)[*:2]].[am]}$$$$V2.0), for which the “Percentage cytotoxicity at different concentrations” value in data set [1] (1nM) came to 20.9 ± 3.6%; in data set [1] (10nM), 21.9 ± 4.1%; in data set [1] (100nM), 18.0 ± 5.2%; in [1] (1µM) it was 9.0 ± 5.3%; in data set [2] (1nM), 12.7 ± 3.5%; in [2] (10nM) it was 26.7 ± 2.4%. Besides, the “Percentage cytotoxicity at different concentrations” value in data set [2] (100nM) is 32.9 ± 2.6%; in data set [2] (1µM) it was 23.7 ± 3.3%; in data set [3] (1nM) it was 13.9 ± 3.5%; in data set [3] (10nM), 22.9 ± 3.8%; in data set [3] (100nM), 23.9 ± 1.7%; in data set [3] (1µM), 22.8 ± 1.4%. Further, the “Percentage cytotoxicity at different concentrations” value in data set [4] (1nM) was determined as 13.9 ± 4.5%; in data set [4] (10nM), 16.5 ± 3.3%; in data set [4] (100nM) it was 20.9 ± 2.3%; in [4] (1µM), 6.0 ± 2.4%; in data set [5] (1nM), 22.9 ± 2.3%; in [5] (10nM), 27.8 ± 2.2%. Also, the “Percentage cytotoxicity at different concentrations” value came out at 21.8 ± 1.2% in data set [5] (100nM); 14.8 ± 1.4% in data set [5] (1µM); 14.9 ± 4.9% in data set [6] (1nM); 24.7 ± 3.5% in data set [6] (10nM); 18.5 ± 3.6% in [6] (100nM); 12.9 ± 2.4% in data set [6] (1µM). In addition, the “Percentage cytotoxicity at different concentrations” value in data set [7] (1nM) worked out at 16.4 ± 3.2%; in data set [7] (10nM), 19.8 ± 4.8%; in data set [7] (100nM), 24.7 ± 2.5%; in data set [7] (1µM), 12.9 ± 1.4%; in [8] (100pM), 14 ± 3.4%; in data set [8] (1nM), 25 ± 8%. Moreover, the “Percentage cytotoxicity at different concentrations” value in data set [8] (10nM) amounted to 19 ± 3.3%; in data set [8] (100nM), 9 ± 2.3%; in data set [8] (1µM), 9 ± 2.3%; in [8] (10µM), 15 ± 2.3%; in data set [9] (100pM), 10.9 ± 1.0%; in [9] (1nM) it was 13.4 ± 4.6%. In addition, the “Percentage cytotoxicity at different concentrations” value was determined as 6.6 ± 0.7% in data set [9] (10nM); 8.8 ± 0.2% in data set [9] (100nM); 8.3 ± 0.5% in data set [9] (1µM); 21.1 ± 1.7% in data set [9] (10µM); 19.3 ±1.8% in data set [10] (MCF-7, 100pM); 20.55 ± 3.1% in [10] (MCF-7, 1nM). The “Percentage cytotoxicity at different concentrations” value in [10] (MCF-7, 10nM) was determined as 5.7 ± 1.5%; in data set [10] (MCF-7, 100nM), 15.4 ± 0.7%; in data set [10] (MCF-7, 1µM), 11.7 ± 5.1%; in data set [10] (MCF-7, 10µM), 19.7 ±5%; in [11] (Su8686, 100pM), 6 ± 1.8%; in [11] (Su8686, 1nM) it was 25 ± 5.3%. In addition, the “Percentage cytotoxicity at different concentrations” value in [11] (Su8686, 10nM) was 10 ± 2.8%; in data set [11] (Su8686, 100nM), 15 ± 3.8%; in data set [11] (Su8686, 1µM), 36 ± 3.3%; in [11] (Su8686, 10µM), 38 ± 4.3%; in data set [12] (100pM) it was “Nil”; in data set [12] (1nM), “Nil”. Further, the “Percentage cytotoxicity at different concentrations” value in [12] (10nM) is 5.8 ± 0.2%; in data set [12] (100nM), 5.3 ± 0.2%; in data set [12] (1µM), 11.7 ± 3.0%; in data set [12] (10µM) it was 27.3 ± 5.4%; in [13] (100pM), “Nil”; in data set [13] (1nM), 6 ± 0.9%. For the same compound, the “Percentage cytotoxicity at different concentrations” value amounted to 10 ± 3.4% in [13] (10nM), 10 ± 4.9% in data set [13] (100nM), 4 ± 2.6% in data set [13] (1µM) and 15 ± 2.3% in data set [13] (10µM).
In the case of “pHOPA-D-Trp-Phe-D-Trp-Leu-Leu-NH2 (pHOPA-[dW]F[dW]LL-NH2; reading uncertain) [Analog R]”, the half-inhibitory concentration (IC50) (usually the midpoint of a concentration-inhibition curve) in [14] was 10 µM.
As to “[D-Arg^1, D-Phe^5, D-Trp^7,9, Leu^11] substance P [Antagonist D]”, the 50% inhibitory concentration (IC50) in [15] is 5 µM.
In the case of “D-MePhe-D-Trp-Phe-DTrp-Leu-MPA [Analog 7]”, the concentration for half-maximal inhibition (IC50) in [14] is 5 µM.
For the compound “D-MePhe-D-Trp-Phe-D-TrpLeu(psi)-(CH2NH)-Leu-NH2 [Analog 6]”, the IC50 in data set [14] was 2 µM.
